# Values quoted from earlier work as cited in publication PMC7395068, “The evolution of strategies to minimise the risk of human drug-induced liver injury (DILI) in drug discovery and development” (Archives of Toxicology, 2020).
# Like-named read-outs stand apart in the source and are kept apart here. *1 amine or outer side, *2 acyl side, *3 side chain or, on linkers, in order; H or OH if unused. Where a SMILES comes first, the peptide text is derived from it. Bridges are numbered along the chain shown (N, C = ends). [ ]: non-standard residue; d: D form. The star is where a group is joined. pTerphenylCO(4''-OnC5H11) = CCCCCOc1ccc(-c2ccc(-c3ccc(C(=O)*)cc3)cc2)cc1; Orn(4R-OH,5R-OH) = O=C([C@H](C[C@@H](O)[C@@H](O)N[*:3])N[*:1])[*:2]; hTyr(3S-OH,4S-OH) = N[C@H](C(=O)O)[C@H](O)[C@@H](O)c1ccc(O)cc1; Pro(3S-OH,4S-Me) = C[C@H]1CN[C@H](C(=O)O)[C@H]1O; Hyp = O=C(O)[C@@H]1C[C@@H](O)CN1
# Details: cited from earlier work
# [1] = binary in vivo DILI call given beside the severity category, ref Chen 2016
# [2] = human DILI concern category (LTKB DILIrank), ref Chen 2016
# [3] = LTKB DILIrank category, ref Chen 2016
# [4] = binary in vivo human DILI call, ref Chen 2016
# [5] = human DILI, LTKB DILIrank category, ref Chen 2016
# [6] = binary human DILI assignment, ref Chen 2016
# [7] = binary DILI call, ref Chen 2016
molecule,measurement,setting,value
CC=CC1=C(C(=O)O)N2C(=O)[C@@H](NC(=O)[C@H](N)c3ccc(O)cc3)[C@H]2SC1 [cefprozil],"DILI +VE (5-8), DILI -VE (-4)",in vivo,+VE
same,DILI severity category,in vivo,vLess-DILI-Concern
Cc1ccccc1C(=O)Nc1ccc(C(=O)N2CCCC(O)c3cc(Cl)ccc32)c(C)c1 (stereo not drawn) [tolvaptan],"DILI +VE (5-8), DILI -VE (-4)",[1],+VE
same,DILI severity category,[2],vMost-DILI-Concern
CO/N=C(\C(=O)N[C@@H]1C(=O)N2C(C(=O)O)=C(COC(N)=O)CS[C@H]12)c1ccco1 [cefuroxime],DILI severity category,[3],vLess-DILI-Concern
CCCCC(C)(O)C/C=C/[C@H]1[C@H](O)CC(=O)[C@@H]1CCCCCCC(=O)OC (mixture of isomers) [misoprostol],"DILI +VE (5-8), DILI -VE (-4)",in vivo,-VE
same,DILI severity category,in vivo,Ambiguous DILI-concern
Cc1ccc(Cl)c(Nc2ccccc2C(=O)O)c1Cl [meclofenamic acid],"DILI +VE (5-8), DILI -VE (-4)",[4],-VE
same,DILI severity category,[5],Ambiguous DILI-concern
heparin sodium,"DILI +VE (5-8), DILI -VE (-4)",in vivo,+VE
same,DILI severity category,in vivo,vLess-DILI-Concern
interferon beta-1b,"DILI +VE (5-8), DILI -VE (-4)",in vivo,+VE
same,DILI severity category,in vivo,vMost-DILI-Concern
C#CCC(Cc1cnc2nc(N)nc(N)c2n1)c1ccc(C(=O)N[C@@H](CCC(=O)O)C(=O)O)cc1 (stereo partly drawn) [pralatrexate],"DILI +VE (5-8), DILI -VE (-4)",[1],-VE
same,DILI severity category,[2],Ambiguous DILI-concern
COc1cc(C(C)=O)ccc1OCCCN1CCC(c2noc3cc(F)ccc23)CC1 [iloperidone],"DILI +VE (5-8), DILI -VE (-4)",[4],-VE
same,DILI severity category,[5],Ambiguous DILI-concern
CCCCNc1ccc(C(=O)OCCOCCOCCOCCOCCOCCOCCOCCOCCOC)cc1 [benzonatate],DILI severity category,[3],vLess-DILI-Concern
ofatumumab,"DILI +VE (5-8), DILI -VE (-4)",in vivo,-VE
same,DILI severity category,in vivo,vNo-DILI-Concern
NC[C@@H]1O[C@H](O[C@H]2[C@@H](O)[C@H](O[C@@H]3[C@@H](O)[C@H](N)C[C@H](N)[C@H]3O[C@H]3O[C@H](CN)[C@@H](O)[C@H](O)[C@H]3N)O[C@@H]2CO)[C@H](N)[C@@H](O)[C@@H]1O [neomycin],"DILI +VE (5-8), DILI -VE (-4)",in vivo,-VE
same,DILI severity category,in vivo,vNo-DILI-Concern
CONC(=N)c1ccc(-c2ccc(-c3ccc(C(=N)NOC)cc3)o2)cc1 [pafuramidine],"DILI +VE (5-8), DILI -VE (-4)",[1],+VE
same,DILI severity category,[2],vMost-DILI-Concern
N[C@@H](Cc1cc(I)c(Oc2cc(I)c(O)c(I)c2)c(I)c1)C(=O)O [levothyroxine],"DILI +VE (5-8), DILI -VE (-4)",[4],+VE
same,DILI severity category,[5],vLess-DILI-Concern
C=CC1=C(C(=O)O)N2C(=O)[C@@H](NC(=O)/C(=N\O)c3csc(N)n3)[C@H]2SC1 [cefdinir],DILI severity category,[3],vLess-DILI-Concern
CC(=O)Oc1ccc(C2(c3ccc(OC(C)=O)cc3)C(=O)N(C(C)=O)c3ccccc32)cc1 [triacetyldiphenolisatin],"DILI +VE (5-8), DILI -VE (-4)",[1],+VE
same,DILI severity category,[2],vMost-DILI-Concern
CN1CCC(Nc2ncc3ncnc(Nc4ccc(F)c(Cl)c4)c3n2)CC1 [falnidamol],"DILI +VE (5-8), DILI -VE (-4)",in vivo,+VE
same,DILI severity category,in vivo,vMost-DILI-Concern
filgrastim,"DILI +VE (5-8), DILI -VE (-4)",in vivo,-VE
same,DILI severity category,in vivo,Ambiguous DILI-concern
O=C(O)CCCO [gamma hydroxybutyric acid],"DILI +VE (5-8), DILI -VE (-4)",[4],-VE
same,DILI severity category,[5],vNo-DILI-Concern
infliximab,"DILI +VE (5-8), DILI -VE (-4)",in vivo,+VE
same,DILI severity category,in vivo,vMost-DILI-Concern
rilonacept,"DILI +VE (5-8), DILI -VE (-4)",in vivo,-VE
same,DILI severity category,in vivo,vNo-DILI-Concern
Nc1nc2[nH]cc(CCc3ccc(C(=O)N[C@@H](CCC(=O)O)C(=O)O)cc3)c2c(=O)[nH]1 [pemetrexed],"DILI +VE (5-8), DILI -VE (-4)",[1],-VE
same,DILI severity category,[2],Ambiguous DILI-concern
mecasermin,"DILI +VE (5-8), DILI -VE (-4)",in vivo,-VE
same,DILI severity category,in vivo,Ambiguous DILI-concern
C[C@H](O)[C@H](O)[C@H]1CNc2nc(N)[nH]c(=O)c2N1 [tetrahydrobiopterin],"DILI +VE (5-8), DILI -VE (-4)",[1],-VE
same,DILI severity category,[2],vNo-DILI-Concern
CC(=O)Oc1ccccc1C(=O)Nc1ncc([N+](=O)[O-])s1 [nitazoxanide],"DILI +VE (5-8), DILI -VE (-4)",[1],-VE
same,DILI severity category,[2],vNo-DILI-Concern
palivizumab,"DILI +VE (5-8), DILI -VE (-4)",[1],-VE
same,DILI severity category,[2],vNo-DILI-Concern
CC(C)C[C@H](NC(=O)[C@H](Cc1ccccc1)NC(=O)c1cnccn1)B(O)O [bortezomib],DILI severity category,[3],vMost-DILI-Concern
Cl.Cl.NCCNCCNCCN [trientine hydrochloride],"DILI +VE (5-8), DILI -VE (-4)",in vivo,-VE
same,DILI severity category,in vivo,vNo-DILI-Concern
COC(=O)[C@H]1[C@H]2C[C@@H]3c4[nH]c5cc(OC)ccc5c4CCN3C[C@H]2C[C@@H](OC(=O)c2cc(OC)c(OC)c(OC)c2)[C@@H]1OC [reserpine],"DILI +VE (5-8), DILI -VE (-4)",[1],-VE
same,DILI severity category,[2],vNo-DILI-Concern
CC(=O)OC[C@H]1O[C@@H]([S-])[C@H](OC(C)=O)[C@@H](OC(C)=O)[C@@H]1OC(C)=O.CCP(CC)CC.[Au+] [auranofin],DILI severity category,[3],vLess-DILI-Concern
N[C@@H](CC(=O)N1CCn2c(nnc2C(F)(F)F)C1)Cc1cc(F)c(F)cc1F [sitagliptin],"DILI +VE (5-8), DILI -VE (-4)",[1],+VE
same,DILI severity category,[2],vLess-DILI-Concern
CCC1=C[C@@H]2CN(C1)Cc1c([nH]c3ccccc13)[C@@](C(=O)OC)(c1cc3c(cc1OC)N(C)[C@H]1[C@@](O)(C(=O)OC)[C@H](OC(C)=O)[C@]4(CC)C=CCN5CC[C@]31[C@@H]54)C2 [vinorelbine],DILI severity category,[3],Ambiguous DILI-concern
same,"DILI +VE (5-8), DILI -VE (-4)",[6],-VE
CNC(=O)c1cnn(-c2nc(N)c3ncn([C@@H]4O[C@H](CO)[C@@H](O)[C@H]4O)c3n2)c1 [regadenoson],"DILI +VE (5-8), DILI -VE (-4)",in vivo,-VE
same,DILI severity category,in vivo,vNo-DILI-Concern
CCOc1ccc2ccccc2c1C(=O)N[C@@H]1C(=O)N2[C@@H]1SC(C)(C)[C@@H]2C(=O)O [nafcillin],"DILI +VE (5-8), DILI -VE (-4)",[1],+VE
same,DILI severity category,[2],vLess-DILI-Concern
COc1c(C)c2c(c(O)c1C/C=C(\C)CCC(=O)OCCN1CCOCC1)C(=O)OC2 [mycophenolate mofetil],"DILI +VE (5-8), DILI -VE (-4)",[1],+VE
same,DILI severity category,[2],vLess-DILI-Concern
"CCCCCOc1ccc(-c2ccc(-c3ccc(C(=O)N[C@H]4C[C@@H](O)[C@@H](O)NC(=O)[C@@H]5[C@@H](O)[C@@H](C)CN5C(=O)[C@H]([C@@H](C)O)NC(=O)[C@H]([C@H](O)[C@@H](O)c5ccc(O)cc5)NC(=O)[C@@H]5C[C@@H](O)CN5C(=O)[C@H]([C@@H](C)O)NC4=O)cc3)cc2)cc1 [anidulafungin] ({pTerphenylCO(4''-OnC5H11)}-[Orn(4R-OH,5R-OH)]T[Hyp][hTyr(3S-OH,4S-OH)]T[Pro(3S-OH,4S-Me)]; lactam 1-C)",DILI severity category,[3],Ambiguous DILI-concern
same,"DILI +VE (5-8), DILI -VE (-4)",[7],-VE
Clc1ccc2c(c1)C(c1ccccc1)=NCc1nncn1-2 [estazolam],"DILI +VE (5-8), DILI -VE (-4)",[4],-VE
same,DILI severity category,[5],vNo-DILI-Concern
CNCC[C@@H](Oc1ccccc1C)c1ccccc1 [atomoxetine],DILI severity category,[3],vMost-DILI-Concern
COc1c(N2C[C@@H]3CCCN[C@@H]3C2)c(F)cc2c(=O)c(C(=O)O)cn(C3CC3)c12 [moxifloxacin],"DILI +VE (5-8), DILI -VE (-4)",in vivo,+VE
same,DILI severity category,in vivo,vLess-DILI-Concern
CO[C@@]1(NC(=O)Cc2cccs2)C(=O)N2C(C(=O)O)=C(COC(N)=O)CS[C@@H]21 [cefoxitin],DILI severity category,[3],Ambiguous DILI-concern
same,"DILI +VE (5-8), DILI -VE (-4)",[7],-VE
glatiramer acetate,"DILI +VE (5-8), DILI -VE (-4)",[4],-VE
same,DILI severity category,[5],Ambiguous DILI-concern
C[C@@H](CN1CC(=O)NC(=O)C1)N1CC(=O)NC(=O)C1 [dexrazoxane],"DILI +VE (5-8), DILI -VE (-4)",[4],-VE
same,DILI severity category,[5],Ambiguous DILI-concern
CCCCC[C@H](O)/C=C/[C@@H]1[C@H]2C/C(=C/CCCC(=O)O)O[C@H]2C[C@H]1O [epoprostenol],"DILI +VE (5-8), DILI -VE (-4)",[4],-VE
same,DILI severity category,[5],Ambiguous DILI-concern
c1cnc2cc3c(cc2n1)[C@@H]1CNC[C@H]3C1 [varenicline],DILI severity category,[3],vLess-DILI-Concern
same,"DILI +VE (5-8), DILI -VE (-4)",[6],+VE
S=P(N1CC1)(N1CC1)N1CC1 [thiotepa],"DILI +VE (5-8), DILI -VE (-4)",[1],+VE
same,DILI severity category,[2],vLess-DILI-Concern
CCN(C)C(=O)Oc1cccc([C@H](C)N(C)C)c1 [rivastigmine],"DILI +VE (5-8), DILI -VE (-4)",[1],+VE
same,DILI severity category,[2],vLess-DILI-Concern
NS(=O)(=O)c1cc(Cl)c(Cl)c(S(N)(=O)=O)c1 [dichlorphenamide],"DILI +VE (5-8), DILI -VE (-4)",[4],-VE
same,DILI severity category,[5],vNo-DILI-Concern
OC[C@@H](O)[C@@H](O)[C@H](O)[C@H](O)CO [mannitol],"DILI +VE (5-8), DILI -VE (-4)",[4],-VE
same,DILI severity category,[5],vNo-DILI-Concern
